Read-outs that look alike come from different tables or passages of the source.
T1: T1r2a–T1r3:S300E mutant (Oryzias latipes, UniProt A0A173M0G2)
T1 sequence (A0A173M0G2 12-802): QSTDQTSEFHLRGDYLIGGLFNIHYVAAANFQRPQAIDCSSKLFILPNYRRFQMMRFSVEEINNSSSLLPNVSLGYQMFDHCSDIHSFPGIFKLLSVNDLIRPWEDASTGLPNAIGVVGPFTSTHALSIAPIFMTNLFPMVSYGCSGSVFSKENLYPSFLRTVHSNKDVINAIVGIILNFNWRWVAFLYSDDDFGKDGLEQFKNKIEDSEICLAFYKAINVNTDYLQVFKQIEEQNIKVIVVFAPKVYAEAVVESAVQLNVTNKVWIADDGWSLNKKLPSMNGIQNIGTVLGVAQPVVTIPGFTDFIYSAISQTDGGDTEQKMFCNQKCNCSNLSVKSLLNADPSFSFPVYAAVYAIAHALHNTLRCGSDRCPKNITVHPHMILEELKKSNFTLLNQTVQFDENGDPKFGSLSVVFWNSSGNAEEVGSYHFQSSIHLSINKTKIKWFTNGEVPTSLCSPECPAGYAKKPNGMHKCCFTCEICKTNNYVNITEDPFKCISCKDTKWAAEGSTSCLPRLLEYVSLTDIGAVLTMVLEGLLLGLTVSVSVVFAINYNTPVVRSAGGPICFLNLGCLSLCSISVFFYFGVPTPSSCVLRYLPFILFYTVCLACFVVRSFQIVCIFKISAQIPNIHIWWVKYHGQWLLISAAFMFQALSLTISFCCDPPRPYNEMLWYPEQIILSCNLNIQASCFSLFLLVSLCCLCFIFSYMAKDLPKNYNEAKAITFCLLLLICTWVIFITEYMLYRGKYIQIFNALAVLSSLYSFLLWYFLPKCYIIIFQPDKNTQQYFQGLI
T1 sequence (A0A173M094 12-836 partner): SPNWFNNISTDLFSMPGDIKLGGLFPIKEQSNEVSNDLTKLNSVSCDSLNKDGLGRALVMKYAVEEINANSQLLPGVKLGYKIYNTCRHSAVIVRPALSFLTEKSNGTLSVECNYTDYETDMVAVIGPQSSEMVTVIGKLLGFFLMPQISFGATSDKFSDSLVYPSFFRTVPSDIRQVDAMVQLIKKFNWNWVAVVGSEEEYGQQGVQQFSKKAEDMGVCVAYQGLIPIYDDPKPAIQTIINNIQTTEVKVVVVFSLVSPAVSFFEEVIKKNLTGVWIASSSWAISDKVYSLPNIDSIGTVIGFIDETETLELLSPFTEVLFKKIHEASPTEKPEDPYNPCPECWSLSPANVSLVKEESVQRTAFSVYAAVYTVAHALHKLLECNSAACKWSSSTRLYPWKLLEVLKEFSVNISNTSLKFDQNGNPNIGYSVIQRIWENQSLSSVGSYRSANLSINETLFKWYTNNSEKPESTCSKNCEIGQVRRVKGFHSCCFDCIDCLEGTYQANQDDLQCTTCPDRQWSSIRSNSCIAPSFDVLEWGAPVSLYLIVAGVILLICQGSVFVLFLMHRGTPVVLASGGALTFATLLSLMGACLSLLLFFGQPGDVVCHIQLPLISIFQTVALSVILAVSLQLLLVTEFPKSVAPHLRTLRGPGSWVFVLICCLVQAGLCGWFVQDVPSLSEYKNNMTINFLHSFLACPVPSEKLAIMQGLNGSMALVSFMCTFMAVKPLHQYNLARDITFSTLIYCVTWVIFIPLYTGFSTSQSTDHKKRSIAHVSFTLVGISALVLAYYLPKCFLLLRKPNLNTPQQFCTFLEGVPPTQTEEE

B1: Fab16A, Fab fragment of the anti-T1r2a-3LBD monoclonal antibody clone 16A (Fab, V domains shown)
VH: EVQLQQSGPELVKPGASMKISCKASGYSFTGYSMNWVKQSHGKNLEWIGLINPYNGDTTYKQKFKGKATLTVDRSSSTAYMELLRLTSEDSAVYYCARSGRGAPTTTTAWFTYWGQGTLVTVSA
VL: DIVLTQSPASLAVSLGQRATISCRASESVDSYGNSFMHWYQQKPGQPPILLISRASNLESGIPARFSGSGSRTDFTLTINPVEADDFATYYCQQTNEDPRTFGGGTKLEIK
notes: Parent antibody is mouse IgG1:kappa; Fab made by papain digestion; also called anti-T1r2a-3LBD mAb clone 16A; source: mouse hybridoma (Mikuri Immunological Lab. Co.); IgG digested with Immobilized-Papain, purified (Protein A Sepharose, Mono S)

Legend:
[1] = biological target: T1r2a–T1r3LBD heterodimer (Oryzias latipes, UniProt A0A173M094+A0A173M0G2); assay: FRET signal change of T1r2aLBD-Cerulean and T1r3LBD-Venus heterodimer on amino acid binding; settings: for FRET signal elevation of fluorescence-labelled LBDs: qualitative
Procedure: The conformational change of T1r2a–T1r3LBD on ligand binding was analysed by Förster resonance energy transfer (FRET) measurement. The heterodimer of the T1r2aLBD (M1-S474)—Celurean fusion protein (T1r2aL-Ce) and the T1r3LBD (M1-S491)—Venus fusion protein (T1r3L-Ve) was stably expressed by S2 cells (Invitrogen) and purified by ANTI-FLAG M2 affinity gel (SIGMA) by use of the FLAG-tag at their C termini, as previously described[22]. […] The titration curves were fitted to the Hill equation by using KaleidaGraph (Synergy Software).
Therefore, at least two independent measurements were performed in this study, except for the inset in Fig. 2a with a single analysis.

[2] = biological target: full-length T1r2a–T1r3 receptor (Oryzias latipes, UniProt A0A173M094+A0A173M0G2); assay: Ca2+ flux assay of full-length receptor in HEK293 (Flip-In 293) cells; assay type: cell-based, medaka fish (Oryzias latipes); settings: for Response of the full-length receptor according to Ca2+-imaging: qualitative, tested up to 10 mM
Procedure: (§1) The Ca^2+ flux assays were performed using a FLEX station 3 (Molecular Devices, LLC) for the cells loaded with 100 μl of Hank's balanced salt solution (Sigma-Aldrich), containing 5 μM of the calcium indicator dye Fluo8 NW (AAT Bioquest). The stimulation was performed by adding 25 μl of 5 × concentrated solutions of taste substances, using a pipette. The intensity of the response was represented as ΔRFU (delta relative fluorescence unit) defined as maximum fluorescence value for the taste substances minus that for the Hank's Balanced Salt Solution, and was plotted versus the ligand concentration. The concentration-response curves were fitted to the Hill equation, using SigmaPlot software (Systat Software).

T1r2a–T1r3:S300E mutant = biological target: T1, T1r2a–T1r3:S300E mutant; assay: cell-based; set-up: species or system medaka fish (Oryzias latipes)
Procedure: as §1
Mutations were introduced using QuikChange (Agilent Technologies) or PrimeStarMax (TAKARA BIO, only for T1r2a:S165I) with primers summarized in Supplementary Table 3.

[3] = cited from earlier work; for Hydropathy index: ref Handbook of Chemistry and Physics, CRC Press; for pI: ref Kyte & Doolittle, J. Mol. Biol., 157, 105-132, 1982; for Volume: ref Tsai et al. J. Mol. Biol., 290, 253-266,1999
human T1r1–T1r3 = system: human T1r1–T1r3; set-up: method as in PMID 24214976; settings: cited from earlier work
[4] = biological target: T2, T1r2a-T1r3LBD heterodimer, medaka fish (Oryzias latipes (medaka fish), UniProt A0A173M0G2;A0A173M094, glycosyl chains trimmed to single N-acetylglucosamine residues by Endo H | glycosyl chains trimmed to single N-acetylglucosamine residues by Endo H); assay: crystal structure; T1r2a-3LBD heterodimer co-crystallised with Fab16A, with bound L-Gln, L-Ala, L-Arg, L-Glu or Gly; sitting-drop vapor diffusion with microseeding, PEG 1500, PEG400, 0.1 M MES pH 6.0, 293 K; settings: both partners purified
T2 construct: signal peptide in the construct; The two chains are joined by an intermolecular disulfide bridge, Cys344 (T1r2a) to Cys132 (T1r3); also called T1r2a-3LBD; T1r2aLBD-T1r3LBD heterodimer; source: S2 cells, stably co-expressed (5 uM kifunensine), from culture medium, purified (ANTI-FLAG M2, factor Xa, Endo H, SEC); not shown: FLAG, C-terminal, cleaved; copies: 1 + 1

[5] = fitted parameter ± s.e. of Hill equation, Fig. 2b, intracellular Ca2+ elevation, HEK293, read-out: EC50 Receptor responses, T1r2a wt T1r3 wt
[6] = fitted parameter ± s.e. of Hill equation, intracellular Ca2+ elevation, HEK293, read-out: EC50 Receptor responses, T1r2a wt T1r3 S300E

Molecule | FRET signal elevation of fluorescence-labelled LBDs ([1]; Fig. 2a) | Response of the full-length receptor according to Ca2+-imaging ([2]; Fig. 2b) | EC50 [1] | Hydropathy index [3] | pI [3] | Volume [3] | other results
NC(=O)CCC(N)C(=O)O (stereo in doubt) [D-glutamine] | – | – | – | – | – | – | FRET signal elevation of fluorescence-labelled LBDs, L- versus D-glutamine comparison ([1]; Fig. 2a inset, 283 K, single analysis): but not D-glutamine, induced FRET signal elevation
NCC(=O)O [Glycine] | induced FRET signal elevation | poor or no significant receptor responses | – | – | – | – | EC50 ([1]; read-out: EC50 FRET changes of LBD, T1r2aLBD wt T1r3LBD wt, fitted parameter ± s.e. of Hill equation, Fig. 2a, room temperature): 6180 ± 3320 µM
C[C@H](N)C(=O)O [L-Alanine] | induced FRET signal elevation | induced responses | 141 ± 37 µM | 1.8 | 6.00 | 90.0 Å3 | EC50 [2, 5]: 2460 ± 2670 µM; EC50 (T1r2a–T1r3:S300E mutant; [6]): 1800 ± 300 µM
N=C(N)NCCC[C@H](N)C(=O)O [L-Arginine] | induced FRET signal elevation | induced responses | 190 ± 35 µM | -4.5 | 10.76 | 194.0 Å3 | EC50 [2]: 470 ± 297 µM; EC50 (T1r2a–T1r3:S300E mutant): 1300 ± 100 µM
N[C@@H](CCC(=O)O)C(=O)O [L-Glutamate] | induced FRET signal elevation | poor or no significant receptor responses | 1070 ± 382 µM | -3.5 | 3.22 | 142.2 Å3 | Maximum FRET change at saturating concentrations ([1]; compared with glutamine, Fig. 2a): larger changes; EC50 (human T1r1–T1r3): ~2700 µM
NC(=O)CC[C@H](N)C(=O)O [L-Glutamine] | induced FRET signal elevation | induced responses | 11.5 ± 3.4 µM | – | – | – | EC50 [2, 5]: 70 ± 8 µM; EC50 (T1r2a–T1r3:S300E mutant; [6]): 200 ± 19 µM
B1 | – | – | – | – | – | – | binding result [4]: binds

Reference: paper PMC5457512, “Structural basis for perception of diverse chemical substances by T1r taste receptors” (Nature Communications, 2017)
